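Assay format: 96-well plates, 48-hour exposure. GI50 is the concentration that inhibits growth by half.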 Calls of active or inactive are those of the source. No stated cut-off is given here; in the data, active = GI50 up to about 1.1 µM and inactive = higher.
Legend:
Assay in all cases: NCI anticancer screen, dose series, 48 h
[1] = system: RXF 393
[2] = system: Malme-3M
[3] = system: SK-MEL-2
[4] = system: OVCAR-4
[5] = system: MOLT-4
[6] = system: ACHN
[7] = system: A549
[8] = system: SK-OV-3
[9] = system: SK-MEL-5
[10] = system: OVCAR-5
[11] = system: OVCAR-3
[12] = system: M14
[13] = system: OVCAR-8
[14] = system: SR
[15] = system: SW-620
[16] = system: UACC-62

Measured: GI50

COc1cccc(-c2cc(C(=O)Nc3ccc(Cl)cc3)nc(N)n2)c1
inactive: [1] 39.4 µM | [2] 57.7 µM | [3] > 100 µM | [4] > 100 µM | [5] 38.7 µM | [6] > 100 µM | [7] 64.7 µM | [8] 61 µM | [9] 55.6 µM | [10] > 100 µM | [11] 35.3 µM | [12] 37.3 µM | [13] 98.9 µM | [14] 45.1 µM | [15] 36.7 µM | [16] 42.6 µM

N/N=C(\CC1OC(=O)c2ccccc21)c1ccco1 (stereo unspecified)
inactive: [1] > 100 µM | [2] > 100 µM | [3] > 100 µM | [4] > 100 µM | [5] > 100 µM | [6] > 100 µM | [7] > 100 µM | [8] > 100 µM | [9] > 100 µM | [10] > 100 µM | [11] > 100 µM | [12] > 100 µM | [15] > 100 µM | [16] > 100 µM

Nn1c(S)nnc1NNC(=O)C(=O)Nc1cc(Cl)c(Cl)cc1Cl
inactive: [1] > 100 µM | [2] > 100 µM | [4] > 100 µM | [6] > 100 µM | [7] > 100 µM | [8] > 100 µM | [9] > 100 µM | [10] > 100 µM | [11] > 100 µM | [12] > 100 µM | [13] > 100 µM | [15] > 100 µM | [16] > 100 µM

COc1ccc(-c2cc(Cc3cccs3)c(=O)[nH]n2)cc1
inactive: [1] 83.8 µM | [2] > 100 µM | [3] > 100 µM | [6] 32.7 µM | [7] 57 µM | [8] > 100 µM | [9] 19 µM | [10] > 100 µM | [11] 29.6 µM | [13] > 100 µM | [15] > 100 µM | [16] 56.9 µM

CCOC(=O)C1S/C(=N\c2ccc(Cl)cc2)N=C1C (stereo unspecified)
inactive: [1] 16.6 µM | [2] 19.9 µM | [3] 22.6 µM | [4] 24.7 µM | [5] 16.7 µM | [6] 20.5 µM | [7] 17.8 µM | [10] 22.1 µM | [11] 23.6 µM | [13] 22.3 µM | [15] 19.9 µM

O=C(CO[N+](=O)[O-])OCC(=O)c1ccccc1
inactive: [1] > 100 µM | [2] > 100 µM | [3] > 100 µM | [4] > 100 µM | [5] > 100 µM | [6] > 100 µM | [7] > 100 µM | [8] > 100 µM | [10] > 100 µM | [11] > 100 µM | [12] > 100 µM | [13] > 100 µM | [14] > 100 µM | [15] > 100 µM

CCN(CC)CC(C(=O)Nc1c(C)cccc1C)/C(C)=N\NC(=O)C[N+](C)(C)C (stereo unspecified)
inactive: [1] > 100 µM | [2] > 100 µM | [4] > 100 µM | [5] > 100 µM | [6] > 100 µM | [7] > 100 µM | [8] > 100 µM | [9] > 100 µM | [10] > 100 µM | [11] > 100 µM | [12] > 100 µM | [13] > 100 µM | [14] > 100 µM | [15] > 100 µM | [16] > 100 µM

CCOc1ccc(NC(=O)/C(Cc2nc3ccccc3nc2O)=N\O)cc1
inactive: [1] > 100 µM | [2] > 100 µM | [3] > 100 µM | [4] > 100 µM | [5] > 100 µM | [6] > 100 µM | [7] > 100 µM | [8] > 100 µM | [9] > 100 µM | [10] > 100 µM | [11] > 100 µM | [12] > 100 µM | [13] > 100 µM | [15] > 100 µM | [16] > 100 µM

COC(=O)c1ccc(OCc2ccc3oc(=O)c(-c4ccccc4)nc3c2)cc1
inactive: [2] 59.2 µM | [3] > 100 µM | [4] > 100 µM | [5] 22.9 µM | [6] > 100 µM | [7] > 100 µM | [9] > 100 µM | [10] > 100 µM | [11] 44.9 µM | [12] > 100 µM | [13] > 100 µM | [14] 30.8 µM | [15] 57.3 µM

[N-]=[N+]=CC(=O)C1(C(=O)C=[N+]=[N-])CC1
inactive: [1] > 100 µM | [2] > 100 µM | [3] > 100 µM | [4] > 100 µM | [5] > 100 µM | [6] > 100 µM | [7] > 100 µM | [8] > 100 µM | [9] > 100 µM | [10] > 100 µM | [11] > 100 µM | [12] > 100 µM | [13] > 100 µM | [14] > 100 µM | [15] > 100 µM

CN1CCN(CCNc2ccc(CO)c3sc4ccccc4c(=O)c23)CC1
inactive: [2] 11.5 µM | [3] 15 µM | [4] 10.5 µM | [5] 3.15 µM | [6] 13.8 µM | [7] 10.5 µM | [9] 12.7 µM | [10] 16.6 µM | [11] 8.18 µM | [12] 14.1 µM | [13] 9.38 µM | [14] 2.51 µM | [15] 4.18 µM | [16] 13 µM

O=C(Nc1ccc(Cl)c(Cl)c1)C(=O)Nn1c(S)nc2ccccc2c1=O
inactive: [1] > 100 µM | [2] > 100 µM | [3] > 100 µM | [4] > 100 µM | [5] > 100 µM | [6] > 100 µM | [7] > 100 µM | [8] > 100 µM | [9] > 100 µM | [10] > 100 µM | [12] > 100 µM | [13] > 100 µM | [14] > 100 µM | [15] > 100 µM | [16] > 100 µM

CN(C)CCCSc1c2ccccc2nc2cc(NCC(=O)Nc3ccccc3-c3ccccc3NC(=O)CNc3ccc4c(SCCCN(C)C)c5ccccc5nc4c3)ccc12
inactive: [1] > 100 µM | [2] 59.4 µM | [3] > 100 µM | [4] > 100 µM | [5] 26.5 µM | [6] > 100 µM | [7] > 100 µM | [8] > 100 µM | [9] > 100 µM | [10] > 100 µM | [11] > 100 µM | [12] > 100 µM | [13] > 100 µM | [14] > 100 µM | [15] > 100 µM | [16] > 100 µM

Cn1c(=O)c2[nH]cnc2n(CC(N)=O)c1=O
inactive: [2] > 100 µM | [3] > 100 µM | [5] > 100 µM | [6] > 100 µM | [7] > 100 µM | [8] > 100 µM | [9] > 100 µM | [11] > 100 µM | [12] > 100 µM | [13] > 100 µM | [14] > 100 µM | [15] > 100 µM | [16] > 100 µM
